In US20250249006A1, “TREATMENT” (Verona Pharma PLC, priority 2024, published 2025):

Columns and labels:
[1] = system: patients aged 40-80 years with moderate to severe COPD; experiment: Clinical studies, ensifentrine vs placebo: COPD symptom responders (E-RS −2 units or TDI +1 unit) in patients with low FEV1 response; format: in vivo; conditions: for Ensifentrine vs. Placebo Odds Ratio, E-RS (−2 Unit) or TDI (+1 Unit) Responders / Odds in favor of a response, E-RS (−2 Unit) or TDI (+1 Unit) Responders / Ensifentrine vs. Placebo Odds Ratio, TDI (+1 Unit) or E-RS (−2 Unit) Responders / Odds in favor of a response, TDI (+1 Unit) or E-RS (−2 Unit) Responders: logistic regression; for Ensifentrine vs. Placebo Odds Ratio, E-RS (−2 Unit) or TDI (+1 Unit) Responders / Odds in favor of a response, E-RS (−2 Unit) or TDI (+1 Unit) Responders / % E-RS (−2 Unit) or TDI (+1 Unit) Responders / % responders, E-RS (−2 Units) or TDI (+1 Unit) Responders / Ensifentrine v placebo Odds Ratio, E-RS (−2 Units) or TDI (+1 Unit) Responders / Odds in favour of response, E-RS (−2 Units) or TDI (+1 Unit) Responders / Ensifentrine vs. Placebo Odds Ratio, TDI (+1 Unit) or E-RS (−2 Unit) Responders / Odds in favor of a response, TDI (+1 Unit) or E-RS (−2 Unit) Responders / % TDI (+1 Unit) or E-RS (−2 Unit) Responders: pooled mITT; for % E-RS (−2 Unit) or TDI (+1 Unit) Responders / % responders, E-RS (−2 Units) or TDI (+1 Unit) Responders / % TDI (+1 Unit) or E-RS (−2 Unit) Responders: 3 mg BID nebuliser; for % responders, E-RS (−2 Units) or TDI (+1 Unit) Responders / Ensifentrine v placebo Odds Ratio, E-RS (−2 Units) or TDI (+1 Unit) Responders / Odds in favour of response, E-RS (−2 Units) or TDI (+1 Unit) Responders: improvement in morning trough FEV1 less than 40 mL (table line prints <60 mL); for proportion of patients with a clinically important improvement in symptoms: over 24 weeks
Method: (§1) Clinical studies were conducted to determine the efficacy of ensifentrine in treating COPD compared with placebo. Ensifentrine was administered by nebuliser at a dose of 3 mg twice daily (BID) for 24 weeks. The studies were multi-centre, randomized, double-blind, parallel-group, placebo-controlled trials.
(§2) The study population included patients aged 40-80 years with moderate to severe COPD (FEV1 30%-70% p.n., FEV1/forced vital capacity (FVC) ratio<0.7, with mMRC≥2). The randomization stratified (a) the use of stable background maintenance LAMA or LABA therapy use (approx. 50%. yes or no) and (b) cigarette smoking (current or former). Inhaled corticosteroid (ICS) maintenance therapy was permitted in up to 20% of patients under certain provisions.
(§3) The primary endpoint was change from baseline in average FEV1 area under the curve AUC0-12h post-dose at week 12. Also assessed were COPD symptoms and quality of life (QoL) in patients showing lower responses in terms of lung function, and in particular patients with: (i) improvement in average FEV1 AUC0-12h of less than 100 mL and (ii) improvement in morning trough FEV1 of less than 100 mL, less than 60 mL or less than 40 mL.
(§4) COPD symptoms were assessed using Evaluating Respiratory Symptoms (E-RS; EXACT-Respiratory Symptoms, The minimal clinically important difference (MCID) of the E-RS is a total score of −2 units. User Manual (Version 3.0), October 2014) and Transitional Dyspnea Index (TDI; Mahler et al, The MCID of the transition dyspnea index is a total score of one unit. COPD 2005, 2:99-103.) and QoL was assessed using the St. George's Respiratory Questionnaire (SGRQ; Jones, St. George's Respiratory Questionnaire: The MCID of the SGRQ is a total score of −4 units. COPD 2005, 2:75-79.).

[2] = system: patients aged 40-80 years with moderate to severe COPD; experiment: Clinical studies, ensifentrine vs placebo: quality of life responders (SGRQ −4 units) in patients with low FEV1 response; format: in vivo
Method: as §1, §2, §3, §4

[3] = FEV1 AUC0-12h <100 mL or morning trough FEV1 <100, <60 or <40 mL, overall conclusion
[4] = average FEV1 AUC0-12h <100 mL at Week 12, Week 6
[5] = average FEV1 AUC0-12h <100 mL at Week 12, Week 12
[6] = average FEV1 AUC0-12h <100 mL at Week 12, Week 24
[7] = morning trough FEV1 <60 mL at Week 6, Week 6
[8] = morning trough FEV1 <60 mL at Week 12, Week 12
[9] = morning trough FEV1 <60 mL at Week 24, Week 24
[10] = morning trough FEV1 <100 mL at Week 6, Week 6
[11] = morning trough FEV1 <100 mL at Week 12, Week 12
[12] = morning trough FEV1 <100 mL at Week 24, Week 24

In the case of `COc1cc2c(cc1OC)-c1c/c(=N\c3c(C)cc(C)cc3C)n(CCNC(N)=O)c(=O)n1CC2` [Ensifentrine, N-(2-{(2E)-9,10-dimethoxy-4-oxo-2-[(2,4,6-trimethylphenyl)imino]-6,7-dihydro-2H-pyrimido[6,1-a]isoquinolin-3(4H)-yl}ethyl)urea], the “subjects achieving symptom MCID” value [1, 3] is reported as “approximately 70%”, the “Ensifentrine vs. Placebo Odds Ratio, E-RS (−2 Unit) or TDI (+1 Unit) Responders” value [1, 4] is reported as 1.42 and the “Odds in favor of a response, E-RS (−2 Unit) or TDI (+1 Unit) Responders” value (“Odds in favor of a response, E-RS” below) [1, 4] is reported as 1.69. The “Ensifentrine vs. Placebo Odds Ratio, E-RS (−2 Unit) or TDI (+1 Unit) Responders” value [1, 5] was 1.63, the “Odds in favor of a response, E-RS” value [1, 5] was 2.69 and the “Ensifentrine vs. Placebo Odds Ratio, E-RS (−2 Unit) or TDI (+1 Unit) Responders” value [1, 6] was 1.38. For the same compound, the “Odds in favor of a response, E-RS” value [1, 6] was 2.91, the “% E-RS (−2 Unit) or TDI (+1 Unit) Responders” value (“% E-RS (−2 Unit) or TDI” below) ([1]; average FEV1 AUC0-12h <100 mL at Week 12, responders at Week 6) was 66.3% and the “% E-RS (−2 Unit) or TDI” value ([1]; average FEV1 AUC0-12h <100 mL at Week 12, responders at Week 12) was 71.2%. The “% E-RS (−2 Unit) or TDI” value ([1]; average FEV1 AUC0-12h <100 mL at Week 12, responders at Week 24) was 72.7%, the “% responders, E-RS (−2 Units) or TDI (+1 Unit) Responders” value (shortened to “% responders, E-RS (−2 Units) or TDI”) ([1]; Week 6) was 67.1% and the “Ensifentrine v placebo Odds Ratio, E-RS (−2 Units) or TDI (+1 Unit) Responders” value (“Ensifentrine v placebo Odds Ratio, E-RS” below) ([1]; Week 6) was 1.468. The “Odds in favour of response, E-RS (−2 Units) or TDI (+1 Unit) Responders” value (“Odds in favour of response, E-RS” for short) ([1]; Week 6) was 1.453, the “% responders, E-RS (−2 Units) or TDI” value ([1]; Week 12) was 70.4% and the “Ensifentrine v placebo Odds Ratio, E-RS” value ([1]; Week 12) was 1.433. The “Odds in favour of response, E-RS” value ([1]; Week 12) was 2.338, the “% responders, E-RS (−2 Units) or TDI” value ([1]; Week 24) was 73.0% and the “Ensifentrine v placebo Odds Ratio, E-RS” value ([1]; Week 24) was 1.370. For the same compound, the “Odds in favour of response, E-RS” value ([1]; Week 24) was 3.238, the “proportion of patients with a clinically important improvement in symptoms” value ([1]; increase in average FEV1 AUC0-12h less than 100 mL at Week 12) was “at least ⅔” and the “proportion of patients with a clinically important improvement in symptoms” value ([1]; increase in morning trough FEV1 less than 100 mL at Week 12) was “at least ⅔”. For the same compound, the “Ensifentrine vs. Placebo Odds Ratio, TDI (+1 Unit) or E-RS (−2 Unit) Responders” value (shortened to “Ensifentrine vs. Placebo Odds Ratio, TDI”) [1, 7] was 1.42, the “Odds in favor of a response, TDI (+1 Unit) or E-RS (−2 Unit) Responders” value (“Odds in favor of a response, TDI” below) [1, 7] was 1.35 and the “% TDI (+1 Unit) or E-RS (−2 Unit) Responders” value (from here on “% TDI (+1 Unit) or E-RS”) ([1]; morning trough FEV1 <60 mL at Week 6, responders at Week 6) was 65.3%. The “Ensifentrine vs. Placebo Odds Ratio, TDI” value [1, 8] was 1.59, the “Odds in favor of a response, TDI” value [1, 8] was 2.83 and the “% TDI (+1 Unit) or E-RS” value ([1]; morning trough FEV1 <60 mL at Week 12, responders at Week 12) was 71.3%. The “Ensifentrine vs. Placebo Odds Ratio, TDI” value [1, 9] was 1.36, the “Odds in favor of a response, TDI” value [1, 9] was 2.74 and the “% TDI (+1 Unit) or E-RS” value ([1]; morning trough FEV1 <60 mL at Week 24, responders at Week 24) was 71.7%. The “Ensifentrine vs. Placebo Odds Ratio, E-RS (−2 Unit) or TDI (+1 Unit) Responders” value [1, 10] was 1.43, the “Odds in favor of a response, E-RS” value [1, 10] was 1.47 and the “% E-RS (−2 Unit) or TDI” value ([1]; morning trough FEV1 <100 mL at Week 6, responders at Week 6) was 66.1%. For the same compound, the “Ensifentrine vs. Placebo Odds Ratio, E-RS (−2 Unit) or TDI (+1 Unit) Responders” value [1, 11] was 1.73, the “Odds in favor of a response, E-RS” value [1, 11] was 2.96 and the “% E-RS (−2 Unit) or TDI” value ([1]; morning trough FEV1 <100 mL at Week 12, responders at Week 12) was 71.9%. For the same compound, the “Ensifentrine vs. Placebo Odds Ratio, E-RS (−2 Unit) or TDI (+1 Unit) Responders” value [1, 12] was 1.42, the “Odds in favor of a response, E-RS” value [1, 12] was 2.75 and the “% E-RS (−2 Unit) or TDI” value ([1]; morning trough FEV1 <100 mL at Week 24, responders at Week 24) was 72.0%. The “subjects achieving QoL MCID” value [2, 3] was about 50% and the “Ensifentrine vs. Placebo Odds Ratio, SGRQ (−4 Unit) Responders” value ([2]; average FEV1 AUC0-12h <100 mL at Week 12, Week 6, logistic regression, pooled mITT) was 1.32.
